Experimental data as given in PubChem BioAssay (NCI).
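Exposure lasted 48 hours, with cells grown in 96-well plates and compounds tested at five concentrations. GI50 marks 50% less growth. TGI denotes the concentration required for complete inhibition of growth.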 Where a SMILES comes first, the peptide text is derived from it. Bridges are numbered along the chain shown (N, C = ends). [ ]: non-standard residue; d: D form. The star is where a group is joined. Cbz = O=C(OCc1ccccc1)*; Dab = NCC[CH](N)C(=O)O; Bn = c1ccc(C*)cc1

Legend:
Test in all cases: growth of human tumour cells (NCI), 48 h; in the data active = GI50 below about 0.43 µM; inactive = the rest
[1] = system: HOP-92 NSCLC
[2] = system: UACC-257 melanoma
[3] = system: NCI-H23 lung
[4] = system: NCI-H226 lung
[5] = system: RXF 393 renal
[6] = system: OVCAR-4 ovarian
[7] = system: SF-268 CNS
[8] = system: NCI-H460 lung
[9] = system: TK-10 renal
[10] = system: HS 578T breast
[11] = system: HCT-15 colon
[12] = system: M14 melanoma
[13] = system: OVCAR-8 ovarian
[14] = system: ACHN renal
[15] = system: SF-539 CNS
[16] = system: SK-MEL-5 melanoma
[17] = system: SW-620 colon
[18] = system: SN12C renal
[19] = system: SF-295 CNS
[20] = system: A498 renal
[21] = system: MDA-MB-231 breast
[22] = system: NCI/ADR-RES ovarian
[23] = system: HCT-116 colon
[24] = system: OVCAR-3 ovarian
[25] = system: HCC-2998 colon
[26] = system: BT-549 breast
[27] = system: K-562 leukemia
[28] = system: UO-31 renal
[29] = system: MOLT-4 leukemia
[30] = system: CAKI-1 renal
[31] = system: U251 CNS
[32] = system: HOP-62 NSCLC
[33] = system: DU-145 prostate
[34] = system: MALME-3M melanoma
[35] = system: MDA-MB-435
[36] = system: MCF7 breast
[37] = system: KM12 colon
[38] = system: OVCAR-5 ovarian
[39] = system: UACC-62 melanoma
[40] = system: RPMI-8226 leukemia
[41] = system: T-47D breast
[42] = system: CCRF-CEM leukemia
[43] = system: SNB-75 CNS
[44] = system: LOX IMVI melanoma
[45] = system: SK-MEL-2 melanoma
[46] = system: NCI-H522 lung
[47] = system: HT29 colon
[48] = system: HL-60(TB) leukemia
[49] = system: SK-OV-3 ovarian
[50] = system: A549 NSCLC
[51] = system: PC-3 prostate
[52] = system: 786-0 renal
[53] = system: IGROV1 ovarian
[54] = system: SNB-19 CNS
[55] = system: SK-MEL-28 melanoma
[56] = system: COLO 205 colon
[57] = system: EKVX NSCLC
[58] = system: SR leukemia

CC(C)CC1NC(=O)C(Cc2ccccc2)NC(=O)C(Cc2ccccc2)NC(=O)C(NC(=O)C(Cc2ccc(OCc3ccccc3)cc2)NC(=O)OCc2ccccc2)CCNC1=O (centres undefined) (Cbz-Y(Bn)[Dab]FFL; lactam 2-C; configuration not given here)
84.7 µM: TGI [2]
> 100 µM: TGI [1] | TGI [3] | TGI [4]

O=C1/C(=C\c2ccc(F)cc2)CN(C(=O)c2ccc([N+](=O)[O-])cc2)C/C1=C\c1ccc(F)cc1
> 43.2 µM: TGI [27]
2.19 µM: TGI [37]
3.19 µM: TGI [5]
3.52 µM: TGI [47]
4.19 µM: TGI [36]
7.92 µM: TGI [21]
12.7 µM: TGI [56]
> 21.4 µM: TGI [4]
6.27 µM: TGI [39]
0.448 µM: TGI [23]
47 µM: TGI [20]
3.84 µM: TGI [16]
> 77.3 µM: TGI [50]
> 42.6 µM: TGI [42]
active: GI50 [23] 0.21 µM | GI50 [36] 0.389 µM | GI50 [40] 0.302 µM | GI50 [44] 0.373 µM
> 85.2 µM: TGI [29]
1.62 µM: TGI [40]
> 27.7 µM: TGI [35]
10.2 µM: TGI [15]
> 51.8 µM: TGI [33]
15.1 µM: TGI [55]
3.97 µM: TGI [31]
6.99 µM: TGI [28]
> 40.4 µM: TGI [8]
> 50.2 µM: TGI [48]
16.4 µM: TGI [19]
inactive: GI50 [5] 1.53 µM | GI50 [6] 3.61 µM | GI50 [7] 3.41 µM | GI50 [8] 4.26 µM | GI50 [9] 5.05 µM | GI50 [10] 2.29 µM | GI50 [11] 1.31 µM | GI50 [12] 2.28 µM | GI50 [13] 2.97 µM | GI50 [14] 2.46 µM | GI50 [15] 2.93 µM | GI50 [16] 1.69 µM | GI50 [1] 11.4 µM | GI50 [17] 0.885 µM | GI50 [18] 2.19 µM | GI50 [19] 2.99 µM | GI50 [20] 4.4 µM | GI50 [2] 4.17 µM | GI50 [21] 2.38 µM | GI50 [3] 3.6 µM | GI50 [22] 3.65 µM | GI50 [24] 2.69 µM | GI50 [25] 1.95 µM | GI50 [26] 2 µM | GI50 [27] 0.915 µM | GI50 [28] 1.69 µM | GI50 [29] 2.7 µM | GI50 [30] 6.64 µM | GI50 [31] 1.55 µM | GI50 [32] 2.56 µM | GI50 [33] 4.31 µM | GI50 [34] 8.22 µM | GI50 [35] 1.83 µM | GI50 [37] 0.568 µM | GI50 [38] 4.6 µM | GI50 [39] 1.98 µM | GI50 [41] 6.61 µM | GI50 [42] 1.64 µM | GI50 [43] 7.66 µM | GI50 [45] 20.4 µM | GI50 [46] 4.3 µM | GI50 [47] 0.517 µM | GI50 [48] 5.07 µM | GI50 [49] 3.7 µM | GI50 [50] 3.63 µM | GI50 [51] 2.14 µM | GI50 [52] 1.89 µM | GI50 [53] 2.67 µM | GI50 [54] 3.58 µM | GI50 [55] 3.72 µM | GI50 [56] 3.17 µM
7.53 µM: TGI [24]
5.35 µM: TGI [17]
3.76 µM: TGI [25]
14.5 µM: TGI [51]
> 93 µM: TGI [43]
15.6 µM: TGI [3]
49.1 µM: TGI [54]
82.7 µM: TGI [9]
8.79 µM: TGI [10]
6.81 µM: TGI [12]
11 µM: TGI [53]
7.85 µM: TGI [32]
28.1 µM: TGI [2]
1.47 µM: TGI [44]
30.7 µM: TGI [46]
4.31 µM: TGI [11]
45.9 µM: TGI [34]
6.55 µM: TGI [18]
4.32 µM: TGI [52]
7.49 µM: TGI [14]
> 100 µM: TGI [6] | TGI [7] | TGI [13] | TGI [1] | TGI [22] | TGI [30] | TGI [41] | TGI [45]
4.41 µM: TGI [26]
49.5 µM: TGI [38]
26.8 µM: TGI [49]

O=C(N/N=C/c1ccccc1O)C(O)(c1ccccc1)c1ccccc1
inactive: GI50 [5] > 100 µM | GI50 [6] 3.43 µM | GI50 [7] 8.69 µM | GI50 [8] 3.54 µM | GI50 [9] > 100 µM | GI50 [10] > 100 µM | GI50 [57] 3.6 µM | GI50 [11] 3.54 µM | GI50 [12] 50.5 µM | GI50 [13] 13.1 µM | GI50 [14] 8.43 µM | GI50 [15] > 100 µM | GI50 [16] > 100 µM | GI50 [1] > 100 µM | GI50 [17] > 100 µM | GI50 [18] > 100 µM | GI50 [19] 4.5 µM | GI50 [20] > 100 µM | GI50 [58] 4.29 µM | GI50 [2] 5.99 µM | GI50 [21] 15 µM | GI50 [3] > 100 µM | GI50 [22] 7.65 µM | GI50 [23] 2.95 µM | GI50 [4] > 100 µM | GI50 [24] 2.66 µM | GI50 [25] 17.4 µM | GI50 [26] > 100 µM | GI50 [27] 6.73 µM | GI50 [28] 2 µM | GI50 [29] 4.46 µM | GI50 [30] 2.36 µM | GI50 [31] 4.77 µM | GI50 [32] 7.37 µM | GI50 [33] > 100 µM | GI50 [34] > 100 µM | GI50 [35] > 100 µM | GI50 [37] 9.93 µM | GI50 [38] > 100 µM | GI50 [39] 15 µM | GI50 [40] > 100 µM | GI50 [41] 8.02 µM | GI50 [42] 2.26 µM | GI50 [43] > 100 µM | GI50 [44] 5.09 µM | GI50 [45] 53.1 µM | GI50 [46] 19.7 µM | GI50 [47] 4.46 µM | GI50 [48] 2.88 µM | GI50 [49] > 100 µM | GI50 [50] 9.67 µM | GI50 [51] > 100 µM | GI50 [52] > 100 µM | GI50 [53] 3.83 µM | GI50 [54] > 100 µM | GI50 [55] > 100 µM | GI50 [56] 3.43 µM
> 100 µM: TGI [5] | TGI [6] | TGI [7] | TGI [8] | TGI [9] | TGI [10] | TGI [57] | TGI [11] | TGI [12] | TGI [13] | TGI [14] | TGI [15] | TGI [16] | TGI [1] | TGI [17] | TGI [18] | TGI [19] | TGI [20] | TGI [58] | TGI [2] | TGI [21] | TGI [3] | TGI [22] | TGI [23] | TGI [4] | TGI [24] | TGI [25] | TGI [26] | TGI [27] | TGI [28] | TGI [29] | TGI [30] | TGI [31] | TGI [32] | TGI [33] | TGI [34] | TGI [35] | TGI [37] | TGI [38] | TGI [39] | TGI [40] | TGI [41] | TGI [42] | TGI [43] | TGI [44] | TGI [45] | TGI [46] | TGI [47] | TGI [48] | TGI [49] | TGI [50] | TGI [51] | TGI [52] | TGI [53] | TGI [54] | TGI [55] | TGI [56]
